Experimental data taken from patent EP4667458A1 (Kanaph Therapeutics Inc., priority 2023, dated 2024).

Target: T1, KRAS^G12C::SOS1 (Homo sapiens, UniProt Q07889)
T1 sequence (Q07889 1-1333): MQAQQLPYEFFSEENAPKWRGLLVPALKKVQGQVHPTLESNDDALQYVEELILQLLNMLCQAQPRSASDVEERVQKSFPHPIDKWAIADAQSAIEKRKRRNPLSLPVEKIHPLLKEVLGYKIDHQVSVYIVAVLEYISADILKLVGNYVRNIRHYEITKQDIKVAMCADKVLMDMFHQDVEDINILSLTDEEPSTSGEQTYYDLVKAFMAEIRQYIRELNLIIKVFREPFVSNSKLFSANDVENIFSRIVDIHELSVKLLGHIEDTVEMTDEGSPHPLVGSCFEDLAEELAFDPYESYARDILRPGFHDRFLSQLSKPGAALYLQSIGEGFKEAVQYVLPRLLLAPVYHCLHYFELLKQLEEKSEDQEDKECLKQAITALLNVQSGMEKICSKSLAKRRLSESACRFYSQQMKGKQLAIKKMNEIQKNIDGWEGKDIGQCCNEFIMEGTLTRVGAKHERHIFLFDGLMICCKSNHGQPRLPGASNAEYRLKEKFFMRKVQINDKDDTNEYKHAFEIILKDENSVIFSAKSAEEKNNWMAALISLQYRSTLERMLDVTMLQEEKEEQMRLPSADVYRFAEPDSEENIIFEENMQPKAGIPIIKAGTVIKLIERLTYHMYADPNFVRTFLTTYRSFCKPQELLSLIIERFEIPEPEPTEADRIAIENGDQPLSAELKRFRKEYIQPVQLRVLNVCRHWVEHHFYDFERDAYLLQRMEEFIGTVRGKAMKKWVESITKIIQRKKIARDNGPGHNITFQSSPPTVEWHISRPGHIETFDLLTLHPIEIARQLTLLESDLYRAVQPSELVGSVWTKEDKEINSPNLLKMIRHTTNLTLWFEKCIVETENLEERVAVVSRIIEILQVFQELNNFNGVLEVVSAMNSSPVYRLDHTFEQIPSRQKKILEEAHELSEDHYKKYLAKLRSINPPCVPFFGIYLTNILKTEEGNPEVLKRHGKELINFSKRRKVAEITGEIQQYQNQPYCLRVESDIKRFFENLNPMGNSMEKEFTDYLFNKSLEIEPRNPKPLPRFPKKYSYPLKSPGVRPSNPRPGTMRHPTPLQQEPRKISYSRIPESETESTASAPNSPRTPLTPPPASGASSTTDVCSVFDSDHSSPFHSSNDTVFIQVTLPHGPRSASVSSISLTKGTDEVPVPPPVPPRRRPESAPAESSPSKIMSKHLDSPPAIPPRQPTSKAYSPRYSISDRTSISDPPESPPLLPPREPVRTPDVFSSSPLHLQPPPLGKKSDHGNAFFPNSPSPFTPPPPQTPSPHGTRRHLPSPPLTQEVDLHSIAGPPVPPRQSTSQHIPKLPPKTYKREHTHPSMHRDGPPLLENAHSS
Experiment: KRAS G12C::SOS1 protein-protein interaction (PPI) inhibition assay (HTRF binding kit)

SMILES | IC50
C[C@@H](NC(=O)c1ccc(=O)n(-c2cccnc2)n1)c1cccc(C(F)(F)CO)c1F [Example 146, N-[(1R)-1-[3-(1,1-difluoro-2-hydroxy-ethyl)-2-fluoro-phenyl]ethyl]-6-oxo-1-(3-pyridyl)pyridazine-3-carboxamide] | < 1 µM
CCNC(=O)c1cccc(-n2nc(C(=O)N[C@H](C)c3cc(N)cc(C(F)(F)F)c3)ccc2=O)c1F [Example 234, (R)-N-(1-(3-amino-5-(trifluoromethyl)phenyl)ethyl)-1-(3-(ethylcarbamoyl)-2-fluorophenyl)-6-oxo-1,6-dihydropyridazine-3-carboxamide] | < 1 µM
C[C@@H](NC(=O)c1ccc(=O)n(-c2cccc(C(=O)N3CCCC3)c2F)n1)c1cc(N)cc(C(F)(F)F)c1 [Example 230] | < 1 µM
C[C@@H](NC(=O)c1ccc(=O)n(-c2cccnc2F)c1)c1cccc(C(F)(F)CO)c1F [Example 147, N-[(1R)-1-[3-(1,1-difluoro-2-hydroxy-ethyl)-2-fluoro-phenyl]ethyl]-1-(2-fluoro-3-pyridyl)-6-oxo-pyridine-3-carboxamide] | < 1 µM
C[C@@H](NC(=O)c1ccc(=O)n(-c2cccc(C(=O)N3CCOCC3)c2)n1)c1cc(N)cc(C(F)(F)F)c1 [Example 254, N-[(1R)-1-[3-amino-5-(trifluoromethyl)phenyl]ethyl]-1-[3-(morpholine-4-carbonyl)phenyl]-6-oxo-pyridazine-3-carboxamide] | < 1 µM
C[C@@H](NC(=O)c1ccc(=O)n(-c2ncccc2F)n1)c1cc(N)cc(C(F)(F)F)c1 [Example 388] | > 10 µM
C[C@@H](NC(=O)c1ccc(=O)n(-c2cccc(CO)c2)n1)c1cccc(C(F)(F)CO)c1F [Example 170, N-[(1R)-1-[3-(1,1-difluoro-2-hydroxy-ethyl)-2-fluoro-phenyl]ethyl]-1-[3-(hydroxymethyl)phenyl]-6-oxo-pyridazine-3-carboxamide] | < 1 µM
COc1ccc(F)c(-n2nc(C(=O)N[C@H](C)c3cccc(C(F)(F)CO)c3F)ccc2=O)c1 [Example 182, N-[(1R)-1-[3-(1,1-difluoro-2-hydroxy-ethyl)-2-fluoro-phenyl]ethyl]-1-(2-fluoro-5-methoxyphenyl)-6-oxo-pyridazine-3-carboxamide] | < 1 µM
C[C@@H](NC(=O)c1ccc(=O)n(CCF)n1)c1cc(N)cc(C(F)(F)F)c1 [Example 226, N-[(1R)-1-[3-amino-5-(trifluoromethyl)phenyl]ethyl]-1-(2-fluoroethyl)-6-oxo-pyridazine-3-carboxamide] | < 1 µM
C[C@@H](NC(=O)c1ccc(=O)n(-c2cccc(C(N)=O)c2)n1)c1cc(N)cc(C(F)(F)F)c1 [Example 252, N-[(1R)-1-[3-amino-5-(trifluoromethyl)phenyl]ethyl]-1-(3-carbamoylphenyl)-6-oxo-pyridazine-3-carboxamide] | < 1 µM
C[C@@H](NC(=O)c1ccc(=O)n(Cc2ccccc2)n1)c1cc(N)cc(C(F)(F)F)c1 [Example 227, N-[(1R)-1-[3-amino-5-(trifluoromethyl)phenyl]ethyl]-1-benzyl-6-oxo-pyridazine-3-carboxamide] | < 1 µM
CNC(=O)c1cccc(-n2nc(C(=O)N[C@H](C)c3cc(N)cc(C(F)(F)F)c3)ccc2=O)c1F [Example 231, (R)-N-(1-(3-amino-5-(trifluoromethyl)phenyl)ethyl)-1-(2-fluoro-3-(methylcarbamoyl)phenyl)-6-oxo-1,6-dihydropyridazine-3-carboxamide] | < 1 µM
C[C@@H](NC(=O)c1ccc(=O)n(-c2ccc3nnn(C)c3c2)n1)c1cc(N)cc(C(F)(F)F)c1 [Example 238, N-[(1R)-1-[3-amino-5-(trifluoromethyl)phenyl]ethyl]-1-(1-methyl-1H-1,2,3-benzotriazol-6-yl)-6-oxo-1,6-dihydropyridazine-3-carboxamide] | < 1 µM

Second part, the compound after the results:

IC50 | SMILES
< 1 µM | C[C@@H](NC(=O)c1ccc(=O)n(-c2cccc(-c3cncs3)c2)n1)c1cc(N)cc(C(F)(F)F)c1 [Example 341, N-[(1R)-1-[3-amino-5-(trifluoromethyl)phenyl]ethyl]-6-oxo-1-(3-thiazol-5-ylphenyl)pyridazine-3-carboxamide]
> 10 µM | C[C@@H](NC(=O)c1ccc(=O)n(-c2ccccc2F)n1)c1cccc(Oc2cccnc2)c1 [Example 305, 1-(2-fluorophenyl)-6-oxo-N-[(1R)-1-[3-(3-pyridyloxy)phenyl]ethyl]pyridazine-3-carboxamide]
< 1 µM | C[C@@H](NC(=O)c1ccc(=O)n(-c2cccc(C(=O)N3CCN(C)CC3)c2)n1)c1cc(N)cc(C(F)(F)F)c1 [Example 255, N-[(1R)-1-[3-amino-5-(trifluoromethyl)phenyl]ethyl]-1-[3-(4-methylpiperazine-1-carbonyl)phenyl]-6-oxo-pyridazine-3-carboxamide]
< 1 µM | CNCc1ccc(F)cc1-c1ccc([C@@H](C)NC(=O)c2ccc(=O)n(-c3ccccc3F)n2)s1 [Example 286, N-[(1R)-1-[5-[5-fluoro-2-(methylaminomethyl)phenyl]-2-thienyl]ethyl]-1-(2-fluorophenyl)-6-oxo-pyridazine-3-carboxamide]
< 1 µM | CNCc1ccc(Cl)cc1-c1ccc([C@@H](C)NC(=O)c2ccc(=O)n(-c3cccnc3)n2)s1 [Example 285, N-[(1R)-1-[5-[5-chloro-2-(methylaminomethyl)phenyl]-2-thienyl]ethyl]-6-oxo-1-(3-pyridyl)pyridazine-3-carboxamide]
< 1 µM | Cc1ncc(-n2nc(C(=O)N[C@H](C)c3cc(N)cc(C(F)(F)F)c3)ccc2=O)s1 [Example 385, N-[(1R)-1-[3-amino-5-(trifluoromethyl)phenyl]ethyl]-1-(2-methylthiazol-5-yl)-6-oxo-pyridazine-3-carboxamide]
< 1 µM | CNCc1ccc(F)cc1-c1ncc([C@@H](C)NC(=O)c2ccc(=O)n(-c3ccccc3F)n2)s1 [Example 396, N-[(1R)-1-[2-[5-fluoro-2-(methylaminomethyl)phenyl]thiazol-5-yl]ethyl]-1-(2-fluorophenyl)-6-oxo-pyridazine-3-carboxamide]
1 to 10 µM | C[C@H](NC(=O)c1ccc(=O)n(-c2ccccc2F)n1)c1cccc(F)c1Cl [Example 262, N-[(1S)-1-(2-chloro-3-fluorophenyl)ethyl]-1-(2-fluorophenyl)-6-oxo-pyridazine-3-carboxamide]
< 1 µM | CNCc1ccc(C)cc1-c1ccc([C@@H](C)NC(=O)c2ccc(=O)n(-c3cccnc3F)c2)s1 [Example 272, 1-(2-fluoro-3-pyridyl)-N-[(1R)-1-[5-[5-methyl-2-(methylaminomethyl)phenyl]-2-thienyl]ethyl]-6-oxo-pyridine-3-carboxamide]
< 1 µM | CNCc1ccc(F)cc1-c1ccc([C@@H](C)NC(=O)c2ccc(=O)n(-c3cccc(C(=O)N(C)C)c3F)n2)s1 [Example 297, 1-[3-(dimethylcarbamoyl)-2-fluoro-phenyl]-N-[(1R)-1-[5-[5-fluoro-2-(methylaminomethyl)phenyl]-2-thienyl]ethyl]-6-oxo-pyridazine-3-carboxamide]
< 1 µM | C[C@@H](NC(=O)c1ccc(=O)n(-c2cccc(C(=O)N(C)C)c2F)n1)c1cc(N)cc(C(F)(F)F)c1 [Example 354, N-[(1R)-1-[3-amino-5-(trifluoromethyl)phenyl]ethyl]-1-[3-(dimethylcarbamoyl)-2-fluoro-phenyl]-6-oxo-pyridazine-3-carboxamide]
< 1 µM | C[C@@H](NC(=O)c1nn(-c2ccccc2F)c(=O)c2sccc12)c1cc(N)cc(C(F)(F)F)c1 [Example 312, N-[(1R)-1-[3-amino-5-(trifluoromethyl)phenyl]ethyl]-6-(2-fluorophenyl)-7-oxo-thieno[2,3-d]pyridazine-4-carboxamide]
< 1 µM | CNCc1ccc(C#N)cc1-c1ccc([C@@H](C)NC(=O)c2ccc(=O)n(-c3ccccc3F)n2)s1 [Example 410]
< 1 µM | C[C@@H](NC(=O)c1ccc(=O)n(-c2ccccc2F)n1)c1cc(N)cc(C(F)F)c1 [Example 375, N-[(1R)-1-[3-amino-5-(difluoromethyl)phenyl]ethyl]-1-(2-fluorophenyl)-6-oxo-pyridazine-3-carboxamide]
